Assay results reported in publication PMC9518609, “Design and synthesis of new trimethoxylphenyl-linked combretastatin analogues loaded on diamond nanoparticles as a panel for ameliorated solubility and antiproliferative activity” (Journal of Enzyme Inhibition and Medicinal Chemistry, 2022).

Tests used:
Assay type in all cases: cell-based
MCF-10A = experiment: MTT cytotoxic activity against breast MCF-10A cell line; details: MTT assay, 24 h treatment
Description: All the synthesised compounds were screened for their cytotoxic activity against breast MDA-MB-231 cancer cell line and compounds 6 and 12 against breast MCF-10A cell line taking CA-4 as a positive control for the analysis. The in vitro cytotoxicity results of the prepared compounds were systematised in Table 1. […] Structurally, the prepared molecules contain three structural variations; including rotatable hydrazide derivatives, the core exchange with imidazolone ring, and the ring expansion with triazinone motif. […] It is noticed that directly attached benzene ring to triazinone scaffold (compound 6) or bioisosteric group (thiazolyl ester) as in compound 12, may contribute to the astonishing cytotoxicity against breast MDA-MB-231 cancer cells.
Part I: Biological Studies
4.3. Biological evaluation
4.3.1. Cytotoxic activity evaluation
The cytotoxic actvity of the synthesized derivatives 2a-13e was measured in MDA-MB-231 breast cancer cell line and derivatives 6 and 12 in MCF-10A […].
Cell viability assay was assessed using MTT assay method. Cells at density of 1 x 104 were seeded in a 96-well plate at 37 °C for 24 h under 5% CO2. After incubation, the cells were treated with different concentrations of the test schiff bases 2a-13e and incubated for 24 h, then 20 µl of MTT solution at 5 mg/mL was applied and incubated for 4 h at 37 °C.
Dimethyl sulphoxide (DMSO) in volume of 100 µl was added to each well to dissolve the purple formazan that had formed. The color intensity of the formazan product, which represents the growth condition of the cells, is quantified by using an ELISA plate reader (EXL 800, USA) at 570 nm absorbance. […]
Compounds 6, 12 and CA-4 were evaluated for their tubulin inhibitory activity according to manufacturer’s instructions using # abcam Human Beta-tubulin simplestep ELISA Kit ab245722. MDA-MB-231 cells were trypsinized, counted and seeded at the 2 × 105 into 96-well micro titer plates. […]
(O.D.) was measured at 450±10 nm using microplate reader (Spectromax Plus 96 well plate […]

MDA-MB-231 cells = experiment: Cell cycle analysis by DNA flow cytometry; details: MDA-MB-231, at IC50, 24 h; for %Pre-G1 (pre-G1 apoptosis): untreated control 1.99%; for %DIP G2/M (cells in G2/M phase): untreated control 5.64%
Description: Targeting the cell cycle division at distinct checkpoints of cancer cells has been identified as a promising strategy for cancer chemotherapy.
Cell cycle analysis in MDA-MB-231 cells was investigated using a fluorescent Annexin V-FITC/PI detection kit (BioVision EZCell™ Cell Cycle Analysis Kit Catalog #K920) by flow cytometry assay. All experimental steps were performed as reported earlier.
4.3.3. Cell cycle analysis of compound 6 and 12
Cell cycle analysis in MDA-MB-231 cells was investigated using fluorescent Annexin V-FITC/ PI detection kit (BioVision EZCellTM Cell Cycle Analysis Kit Catalog #K920) by flow cytometry assay. MDA-MB-231 cells at a density of 2 × 10^5 per well were harvested and washed twice in PBS. After that, the cells were incubated at 37 °C and 5% CO2. The […]
washed twice in PBS, fixed with 70% ethanol, rinsed again with PBS. Afterward, medium was stained with DNA fluorochrome PI for 15 min at 37 °C. […]
All experiments were done in triplicates. […]

p53 = experiment: ELISA measurement of p53 level in MDA-MB-231 cells; details: MDA-MB-231, at IC50, 24 h
Description: p53, Bax, and Bcl-2 are key regulators of the apoptosis process to keep the balance between viable and dead normal cells. Deregulation of these proteins is a common feature responsible for uncontrolled cancer cell growth. In this test, the protein expression of apoptotic regulators was examined using ELISA analysis. […]
p53, Bax, and Bcl2 enzyme activities in MDA-MB-231 cells were investigated in the presence of compounds 6 and 12 at their IC50 concentration (µM). The levels of the tumour suppressor gene p53, apoptotic markers Bax as well as the anti-apoptotic marker Bcl-2 were assessed using the p53 ELISA kit, Human Bax ELISA kit, and Bcl-2 Elisa kit. The procedure of the used kits was done according to the manufacturer's instructions and was conducted as reported earlier. […]
4.3.4.2. Effect on p53, Bax and Bcl-2 p53, Bax and Bcl2 enzyme activities in MDA-MB-231 cells were detected in the presence of compounds 6 and 12 at their IC50 concentration (µM). The levels of the tumor suppressor gene p53, apoptotic markers Bax as well as the anti-apoptotic marker Bcl-2 were assessed using p53 ELISA kit, Human Bax ELISA kit and Bcl-2 Elisa kit. The procedure of the used kits was done according to the manufacturer's instructions. […] The samples were measured at 450 nm in ROBONEK P2000 ELISA reader. […]

Compound	IC50 (MCF-10A; Homo sapiens, MCF-10A)	%Pre-G1 (pre-G1 apoptosis) (MDA-MB-231 cells)	%DIP G2/M (cells in G2/M phase) (MDA-MB-231 cells)	p53 level increase, fold change compared with no treatment control (p53)	IC50 (MCF-10A)
COc1cc(C=C2N=C(c3cc(OC)c(OC)c(OC)c3)N(c3ccccc3)NC2=O)cc(OC)c1OC [Compound 6, 2-phenyl-5-(3,4,5-trimethoxybenzylidene)-3-(3,4,5-trimethoxyphenyl)-1,2-dihydro-1,2,4-triazin-6(5H)-one]	19.5 ± 2.15 µM	43.50%	35.09%	11.96 fold	
ethyl 2-(2-(6-oxo-5-(3,4,5-trimethoxybenzylidene)-3–(3,4,5-trimethoxyphenyl)-5,6-dihydro-1,2,4-triazin-2(1H)-yl)thiazol-4-yl)acetate [Compound 12]		29.81%	26.75%	5.20 fold	14.6 ± 1.96 µM
